According to article PMC8298097 (eLife, 2021):

How the values were obtained:
GIPR = conditions: maximum response compared with human GIP; ref Sparre-Ulrich et al., 2016; Bailey, 2020; cited from earlier work
Description: Species differences in class B1 receptor responsiveness are diversified and receptor specific, which is tolerable for some receptors such as GLP-1R and GCGR, but leads to concerns for others like GIPR and parathyroid hormone receptor-2 (PTH2R) ([Sparre-Ulrich et al., 2016]; [Hoare et al., 1999]). […] Such a divergence is not caused by changes in peptide potency, but r ...

GCGR = conditions: cognate receptor, ref Yuliantie et al., 2020, Darbalaei et al.; cited from earlier work
[1] = molecular target: T1, human GIPR Y68A, HA-Flag-3GSA-GIPR(22-466) (human) (UniProt P48546)
T1 sequence: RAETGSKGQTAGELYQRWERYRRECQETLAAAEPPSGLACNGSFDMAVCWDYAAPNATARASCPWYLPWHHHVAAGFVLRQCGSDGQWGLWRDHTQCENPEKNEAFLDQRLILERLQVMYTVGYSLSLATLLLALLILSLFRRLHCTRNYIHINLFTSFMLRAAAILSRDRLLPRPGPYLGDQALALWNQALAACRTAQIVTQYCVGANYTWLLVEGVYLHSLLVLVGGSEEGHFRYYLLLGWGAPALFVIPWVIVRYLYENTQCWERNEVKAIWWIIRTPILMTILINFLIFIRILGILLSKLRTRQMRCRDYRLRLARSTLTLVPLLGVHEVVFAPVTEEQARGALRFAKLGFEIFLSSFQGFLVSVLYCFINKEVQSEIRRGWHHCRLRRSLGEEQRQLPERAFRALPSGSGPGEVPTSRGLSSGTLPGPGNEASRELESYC

Human (Pro3)GIP: full agonist with identical maximum response as human GIP (YAPGTFISDYSIAMDKIHQQDFVNWLLAQKGKKNDWKHNITQ; Gastric inhibitory polypeptide; UniProt P09681 52-93, looked up, variant E3P)
agonism (GIPR): full agonist with identical maximum response as human GIP

glucagon
pIC50 (GCGR): 7.31

glucose-dependent insulinotropic polypeptide GIP(1-42) (from UniProt P09681 52-93)
GIP(1-42)-stimulated cAMP accumulation in HEK 293T cells, pEC50 [1]: 6.79
